Data published in patent US4925853A, “Benzimidazoles as 5-lipoxygenase inhibitors” (Beecham Group PLC, priority 1984, dated 1990).
Where a name gives a salt, the structure may show the parent alone.

What was measured:
[1] = test system: carrageenin-induced pleurisy in the rat; assay: Carrageenin-induced pleurisy in the rat (Method C); assay type: in vivo; details: 1 hour before and 24 and 48 hours after carrageenin
Experimental: CARRAGEENIN-INDUCED PLEURISY IN THE RAT This model of monocyte accumulation is based on the method of R. Vinegar, J. F. Truax, J. […] [Federation Proceedings 41, 2588-2595, 1982]. 0.2 ml of a 2.0% solution of λ-carrageenin (Viscarin 402) in saline was injected intrapleurally in anaesthetised rats (wt. approx. 175-200 g). […] Exudate volume was calculated from the dilution of the phenol red injected, determined spectrophotometrically (560 nm) and cellular content estimated with a DNA assay [[…]. and Wollenberger A. Anal. Biochem. 77, 464-470, 1977]. This test is used to indicate anti-inflammatory activity against carrageenin-induced pleurisy in the rat.

[2] = test system: SRS-A release; assay: Rat passive peritoneal anaphylaxis (PPA), SRS-A release (Method D); assay type: in vivo; details: final concentration of 2×10^-4 M, intraperitoneal
Source text: Rat passive peritoneal anaphylaxis (PPA) The method is essentially similar to that described previously by Ross et al (Ross, Janet W., Smith, H. and Spicer, Barbara A. Increased vascular permeability during passive peritoneal anaphylaxis in the rat. Int. Arch. Allergy appl. Innum. 51, 226, 1976.) Charles River Sprague Dawley male rats of 225-275 g and Dunkin Hartley male white guinea pigs of 300-700 g were used. Charles River Sprague Dawley male rats of 225-275 g were given intraperitoneal injections of 0.5 ml of either Bordetella pertussis vaccine (4×10^10 organisms/ml; Burroughs Wellcome, London) or Pertussis vaccine absorbed (not less than 41.u. B. pertussis antigen with aluminium hydroxide; The Lister Institute Elstree, England), and subcutaneous injections of 0.5 ml of an emulsion of 100 mg of ovalbumin (chicken egg albumin; crystallised and lyophilised, grade V, Sigma, London) in 2 ml of isotonic saline and 3 ml of incomplete Freund's adjuvant. The rats were bled by cardiac puncture, under ether anaesthesia,on day 18, the blood was pooled and the serum separated, stored at -20° C. and thawed only once before use. The serum produced 72 hour passive cutaneous anaphylaxis activity in recipient rats to a dilution of 1:64 which was decreased to a dilution of less than 1:2 by heating at 56° C. for 4 hours. Rats were given intraperitoneal injections of 2 ml of a 1:5 dilution of the rat anti-serum in isotonic saline. Two hours later 0.3 ml of 5% solution of Pontamine Sky Blue (Raymond A. Lamb, London) in isotonic saline was injected intraveneously, followed by an intraperitoneal injection of the test compound in 1 ml of saline; (control rats received 1 ml of saline); followed 2.5 minutes later by an intraperitoneal injection of 5 ml of a Tyrode solution containing 50 μg/ml heparin and 0.4 mg/ml of ovalbumin. The concentrations of the compounds were quoted as that in the 6 ml of fluid injected intraperitoneally. […]

[3] = test system: development of arthritis in the rat adjuvant arthritis model; assay: Rat Adjuvant Arthritis Model (Method A); assay type: in vivo; details: 25 mg/kg (i.p.)
Experimental: Rat Adjuvant Arthritis Model
The test is as described by Newbould, Brit. J. Pharmacol., 1963, 21, 127-136.
It is used to indicate anti-rheumatic activity as shown by inhibiting the development of arthritis in the rat adjuvant arthritis model. The compound of Example 1 is active at a concentration of 25 mg/kg (i.p.)

[4] = test system: 5-lipoxygenase enzyme; assay: RBL-1 5-Lipoxygenase Screen (Method B), cell free; assay type: biochemical; details: 2 min
Experimental: RBL-1 5-Lipoxygenase Screen
5-Lipoxygenase enzyme was prepared as a 10,000 g supernatant from RBL-1 cells by the method of Jakschik [Jakschik, B. A., F. F. Sun, L. M. Lee, and M. M. Steinhoff, 1980, Biochem. Biophys. Res. Comm. 95, 103]. The 10,000 g supernatant was diluted with homogenization buffer to the equivalent of 1.5-2.5×10^7 cells. ml^-1 and made 2 mM with respect to CaCl2. Aliquots of 0.5 ml were then dispensed into tubes, and incubated at 29° C. with 5 μl ethanol or compound in ethanol at the desired concentration for 2 min. Then […] arachidonic acid was added in buffer to give final concentration of 6.3 μM and 0.2 μCi per incubation, and the reaction continued at 29° C. for 2 min. The reaction was terminated by adding 1 ml of acetone and cooling on ice, 0.5 ml of ice-cold saline and 10 μl of 2N formic acid were added, and the mixture was extracted with 2×2 ml of chloroform. The extract was stored under N2 at -20° C. until analysis by chromatography.
This test is used to show inhibition of the 5-lipoxygenase enzyme in a mammalian RBL-1 cell free 5-lipoxygenase assay.

SMILES | anti-inflammatory activity against carrageenin-induced pleurisy ([1]; 25 mg/kg (p.o.)) | % inhibition of SRS-A release compared to controls [2] | also measured
Cc1ccc(Cc2nc3c(C)ccc(O)c3[nH]2)cc1 [Example 10, 2-(4'-Methylbenzyl)-4-hydroxy-7-methylbenzimidazole] | active | – | –
Cc1ccc(O)c2[nH]c(CCCCCC(=O)O)nc12 [Example 18, 6-(4-Hydroxy-7-methyl-benzimidazol-2-yl)-hexanoic acid hydrochloride hydrate (3:3:1)] | – | – | anti-inflammatory activity against carrageenin-induced pleurisy ([1]; 12 mg/kg (i.p)): active
COc1cc(Cc2nc3c(C)ccc(O)c3[nH]2)cc(OC)c1OC.Cl [Example 25, 2-(3',4',5'-Trimethoxybenzyl)-4-hydroxy-7-methylbenzimidazole hydrochloride] | – | 59% | –
Cc1ccc(O)c2[nH]c(Cc3ccccc3)nc12 [Example 1, 2-Benzyl-4-hydroxy-7-methylbenzimidazole] | – | – | anti-rheumatic activity: inhibition of the development of arthritis in the rat adjuvant arthritis model [3]: active; percentage inhibition (5-lipoxygenase; formation of 5-HETE and 5,12-diHETE) ([4]; 0.5 μM concentration, p<0.01): 36.0 percentage; percentage inhibition (5-lipoxygenase; formation of 5-HETE and 5,12-diHETE) ([4]; 5 μM concentration, p<0.001): 78.1 percentage
COc1ccc(Cc2nc3c(C)ccc(O)c3[nH]2)cc1OC.Cl [Example 26, 2-(3',4'-Dimethoxybenzyl)-4-hydroxy-7-methylbenzimidazole hydrochloride] | – | 55% | –
COc1ccc(Cc2nc3c(C)ccc(O)c3[nH]2)cc1.Cl [Example 12, 2-(4'-Methoxybenzyl)-4-hydroxy-7-methylbenzimidazole hydrochloride] | active | 58% | –
